From patent publication US20080234266A1, “Squaric Acid Derivatives II” (priority 2005, published 2008)

molecular target: T1, CHK1 kinase (Homo sapiens, UniProt O14757); assay: Flashplate method (CHK1), measurement of the CHK1 kinase activity; assay type: biochemical; settings: class symbols; 'Affinity to receptors'
T1 construct: glutathione S-transferase (GST); made in house; host or cells: Sf21 insect cells (S. frugiperda), baculovirus
T1 sequence (O14757 1-476): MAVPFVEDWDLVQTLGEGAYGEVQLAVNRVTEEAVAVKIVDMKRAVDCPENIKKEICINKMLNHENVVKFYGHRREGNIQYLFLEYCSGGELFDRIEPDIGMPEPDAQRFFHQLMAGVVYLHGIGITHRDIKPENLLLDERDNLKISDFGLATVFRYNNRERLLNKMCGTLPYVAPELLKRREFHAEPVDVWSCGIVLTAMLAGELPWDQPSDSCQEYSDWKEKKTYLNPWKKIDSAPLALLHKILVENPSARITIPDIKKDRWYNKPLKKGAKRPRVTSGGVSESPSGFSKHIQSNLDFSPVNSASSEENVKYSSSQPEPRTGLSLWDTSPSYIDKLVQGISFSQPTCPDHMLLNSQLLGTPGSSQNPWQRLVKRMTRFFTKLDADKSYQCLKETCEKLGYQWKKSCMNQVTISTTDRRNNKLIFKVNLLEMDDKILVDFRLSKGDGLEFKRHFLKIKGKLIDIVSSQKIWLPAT
Protocol: CHK1 kinase is expressed for the purposes of protein production in insect cells (Sf21; S. frugiperda) and subsequent purification by affinity chromatography as fusion protein with glutathione S-transferase in a baculovirus expression vector. The cultivation, infection and digestion of the cells as well as the purification of the fusion protein by column chromatography are carried out in accordance with manufacturer-oriented generic working instructions.
The kinase activity is measured using various available measurement systems. In the scintillation proximity method (Sorg et al., J. of. Biomolecular Screening, 2002, 7, 11-19), the flashplate method or the filter binding test, the radioactive phosphorylation of a protein or peptide as substrate is measured using radioactively labelled ATP (γ^32P-ATP, (γ^33P-ATP). In the case of the presence of an inhibitory compound, a reduced radioactive signal, or none at all, can be detected. Furthermore, homogeneous time-resolved fluorescence resonance energy transfer (HTR-FRET) and fluorescence polarisation (FP) technologies are useful as assay methods (Sills et al., J. of Biomolecular Screening, 2002, 191-214).
The test plates used are 384-well streptavidin-coated Flashplates Plus® from Perkin Elmer (Cat.No. SMP410A001PK). The assay plate is equilibrated with 75 μl of assay buffer per well 30 min before commencement of the experiment. The buffer is sucked out before commencement of the experiment, and the components of the kinase reaction described below are pipetted onto the plate.
CHK1 kinase, a biotinylated substrate peptide (for example CHKtide: […]), is incubated with radioactively labelled ATP in the presence and absence of test substances at 30° Celsius and a total volume of 50 μl. The reaction is terminated using 25 μl of a 0.2 M EDTA solution. After incubation for 30 min at room temperature, the supernatants are filtered off with suction, and the wells are washed three times with 100 μl of 0.9% NaCl solution each time. The measurement of the bound radioactivity is carried out by means of a scintillation measuring instrument (Topcount NXT, Perkin-Elmer).
The full value used is the inhibitor-free kinase reaction. This should be approximately in the range 3000-4000 cpm. The pharmacological zero value used is staurosporin in a final concentration of 0.1 μM. The inhibitory values (IC50) are determined using the program RS1_MTS ( ).
Kinase reaction conditions per well:
0.15 μg of CHKtide ([…])
50 μl total volume (1-fold assay buffer reaction conditions)
Solutions used: • assay buffer:
0.1 mM Titriplex VI (EGTA
10 mM magnesium acetate 0.1% mercaptoethanol
pH=7.5 (to be set using hydrochloric acid) Bovine serum albumin (final concentration 0.1%) is not added until just before use. • stop solution:
0.2 M TitriplexIII (EDTA)
• γ^33P-ATP (Perkin-Elmer) • CHK1 kinase preparations: specific activity>50 U/mg • CHKtide solution: biotinylated peptide substrate (Biotrend) stored as stock solution (concentration 0.15 mg/ml).

Compound	IC50 [nM]
Cc1cc2nccn2cc1Nc1c(NCc2cccc(O)c2)c(=O)c1=O [Compound A54, 3-(3-hydroxybenzylamino)-4-(7-methyl-imidazo[1,2-a]pyridin-6-ylamino)cyclobut-3-ene-1,2-dione]	> 1000
COc1cccc(C(CCC2OCCCO2)Nc2c(Nc3ccc4[nH]cnc4c3)c(=O)c2=O)c1 (centres unmarked) [Compound A138, 3-(1H-benzimidazol-5-ylamino)-4-[3-[1,3]-dioxan-2-yl-1-(3-methoxyphenyl)propyl-amino]cyclobut-3-ene-1,2-dione]	> 1000
O=c1c(NCc2cccc(O)c2)c(Nc2ccc3nccn3c2)c1=O [Compound A49, 3-(imidazo[1,2-a]pyridin-6-ylamino)-4-(3-hydroxybenzylamino)cyclobut-3-ene-1,2-dione]	< 1000
CC(=O)Nc1ccc(CNc2c(Nc3ccc4[nH]cnc4c3)c(=O)c2=O)cc1 [Compound A157, 3-(1H-benzimidazol-5-ylamino)-4-(4-acetamidobenzylamino)cyclobut-3-ene-1,2-dione]	> 1000
CS(=O)(=O)NCCOc1cccc(CNc2c(Nc3ccc4[nH]cnc4c3)c(=O)c2=O)c1 [Compound A110, 3-(1H-benzimidazol-5-ylamino)-4-[3-(2-methylsulfonylaminoethoxy)benzylamino]-cyclobut-3-ene-1,2-dione]	> 1000
3-[3-(2-methoxyethyl)-3H-benzimidazol-5-ylamino]-4-[(R)-1-(3-methoxyphenyl)ethyl-amino]cyclobut-3-ene-1,2-dione [Compound A67]	> 1000
COCCNC(=O)CC(Nc1c(Nc2ccc3[nH]cnc3c2)c(=O)c1=O)c1cccc(O)c1 (centres unmarked) [Compound A117, 3-[2-(1H-benzimidazol-5-ylamino)-3,4-dioxo-cyclobut-1-enylamino]-3-(3-hydroxyphenyl)-N-(2-methoxyethyl)propionamide]	> 1000
O=c1c(NCc2ccc3[nH]c(C(F)(F)F)nc3c2)c(Nc2ccc3[nH]cnc3c2)c1=O [Compound A90, 3-(1H-benzimidazol-5-ylamino)-4-[(2-trifluoromethyl-1H-benzimidazol-5-ylmethyl)-amino]cyclobut-3-ene-1,2-dione]	> 1000
COc1cccc([C@H](C)Nc2c(Nc3ccc4c(c3)ncn4C)c(=O)c2=O)c1 [Compound A51, 3-[(S)-1-(3-methoxyphenyl)ethylamino]-4-(1-methyl-1H-benzimidazol-5-ylamino)cyclobut-3-ene-1,2-dione]	> 1000
COCCn1cnc2ccc(Nc3c(NCc4cccc(S(N)(=O)=O)c4)c(=O)c3=O)cc21 [Compound A70, 3-[3-(2-methoxyethyl)-3H-benzimidazol-5-ylamino]-4-(3-aminosulfonylbenzylamino)-cyclobut-3-ene-1,2-dione]	> 1000
O=c1[nH]c2cc(CNc3c(Nc4ccc5[nH]cnc5c4)c(=O)c3=O)ccc2o1 [Compound A160, 3-(1H-benzimidazol-5-ylamino)-4-[(2-oxo-2,3-dihydrobenzoxazol-5-ylmethyl)amino]-cyclobut-3-ene-1,2-dione]	> 1000
COc1cccc(CNc2c(Nc3ccc4ncsc4c3)c(=O)c2=O)c1 [Compound A122, 3-(benzothiazol-6-ylamino)-4-(3-methoxy-benzylamino)cyclobut-3-ene-1,2-dione]	> 1000
O=c1c(NCc2cccc(O)c2)c(Nc2ccc3[nH]c(C(F)(F)F)nc3c2)c1=O [Compound A10, 3-(1H-benzimidazol-2-trifluoromethyl-5-yl-amino)-4-(3-hydroxybenzylamino)cyclobut-3-ene-1,2-dione]	> 1000
O=c1c(NCc2cccc(O)c2)c(Nc2ccc3ncsc3c2)c1=O [Compound A14, 3-(benzothiazol-6-ylamino)-4-(3-hydroxy-benzylamino)cyclobut-3-ene-1,2-dione]	< 1000
O=c1c(NCc2ccc3[nH]ccc3c2)c(Nc2ccc3[nH]cnc3c2)c1=O [Compound A79, 3-(1H-benzimidazol-5-ylamino)-4-[(1H-indol-5-ylmethyl)amino]cyclobut-3-ene-1,2-dione]	> 1000

The remaining lines, values ahead:

IC50 [nM]	Compound
> 1000	CCOc1cccc(CNc2c(Nc3ccc4[nH]cnc4c3)c(=O)c2=O)c1 [Compound A104, 3-(1H-benzimidazol-5-ylamino)-4-(3-ethoxy-benzylamino)cyclobut-3-ene-1,2-dione]
> 1000	O=c1c(NCc2cccc(C(F)(F)F)c2)c(Nc2ccc3[nH]cnc3c2)c1=O [Compound A37, 3-(1H-benzimidazol-5-ylamino)-4-(3-trifluoro-methylbenzylamino)cyclobut-3-ene-1,2-dione]
> 1000	COc1ccccc1CCNc1c(Nc2ccc3[nH]cnc3c2)c(=O)c1=O [Compound A143, 3-(1H-benzimidazol-5-ylamino)-4-[2-(2-methoxyphenyl)ethylamino]cyclobut-3-ene-1,2-dione]
> 1000	O=c1c(NCc2ccc(Cl)c(Cl)c2)c(Nc2ccc3[nH]cnc3c2)c1=O [Compound A162, 3-(1H-benzimidazol-5-ylamino)-4-(3,4-dichlorobenzylamino)cyclobut-3-ene-1,2-dione]
> 1000	NC(=O)c1ccc(CNc2c(Nc3ccc4[nH]cnc4c3)c(=O)c2=O)cc1 [Compound A159, 3-(1H-benzimidazol-5-ylamino)-4-(4-amino-carbonylbenzylamino)cyclobut-3-ene-1,2-dione]
> 1000	O=c1c(NCc2cccc(O)c2F)c(Nc2ccc3[nH]cnc3c2)c1=O [Compound A103, 3-(1H-benzimidazol-5-ylamino)-4-(2-fluoro-3-hydroxybenzylamino)cyclobut-3-ene-1,2-dione]
> 1000	NS(=O)(=O)c1ccccc1CNc1c(Nc2ccc3[nH]cnc3c2)c(=O)c1=O [Compound A155, 3-(1H-benzimidazol-5-ylamino)-4-(2-amino-sulfonylbenzylamino)cyclobut-3-ene-1,2-dione]
< 1000	NS(=O)(=O)c1cccc(CNc2c(Nc3ccc4[nH]cnc4c3)c(=O)c2=O)c1 [Compound A6, 3-(1H-benzimidazol-5-ylamino)-4-(3-amino-sulfonylbenzylamino)cyclobut-3-ene-1,2-dione]
< 1000	O=c1c(NCc2ccc(F)c(O)c2)c(Nc2ccc3[nH]cnc3c2)c1=O [Compound A84, 3-(1H-benzimidazol-5-ylamino)-4-(4-fluoro-3-hydroxybenzylamino)cyclobut-3-ene-1,2-dione]
> 1000	CC[C@@H](Nc1c(Nc2ccc3[nH]cnc3c2)c(=O)c1=O)c1cccc(OC)c1 [Compound A114, 3-(1H-benzimidazol-5-ylamino)-4-[(R)-1-(3-methoxyphenyl)propylamino]cyclobut-3-ene-1,2-dione]
> 1000	O=c1c(NCc2cc(O)ccc2F)c(Nc2ccc3[nH]cnc3c2)c1=O [Compound A136, 3-(1H-benzimidazol-5-ylamino)-4-(2-fluoro-5-hydroxybenzylamino)cyclobut-3-ene-1,2-dione]
> 1000	COc1ccc(CNc2c(Nc3ccc4[nH]cnc4c3)c(=O)c2=O)cc1O [Compound A91, 3-(1H-benzimidazol-5-ylamino)-4-(3-hydroxy-4-methoxybenzylamino)cyclobut-3-ene-1,2-dione]
> 1000	O=c1c(NCc2cccc3[nH]ccc23)c(Nc2ccc3[nH]cnc3c2)c1=O [Compound A135, 3-(1H-benzimidazol-5-ylamino)-4-[(1H-indol-4-ylmethyl)amino]cyclobut-3-ene-1,2-dione]
< 1000	COc1cccc(CNc2c(Nc3ccc4[nH]cnc4c3)c(=O)c2=O)c1 [Compound A116, 3-(1H-benzimidazol-5-ylamino)-4-(3-methoxybenzylamino)cyclobut-3-ene-1,2-dione]
